Measured values taken from the supplement of paper PMC13207355.

Tests used:
Details in all cases: exposure time: 72 h
[1] = system: E13 (patient-derived glioblastoma stem cells of classical subtype); assay: surviving fraction (nuclei count normalised to DMSO); higher = more cells surviving (less toxic)
[2] = system: E21 (patient-derived glioblastoma stem cells of mesenchymal subtype); assay: as above
[3] = system: E28 (patient-derived glioblastoma stem cells of classical subtype); assay: as above
[4] = system: E31 (patient-derived glioblastoma stem cells of proneural subtype); assay: as above
[5] = system: E34 (patient-derived glioblastoma stem cells of proneural subtype); assay: as above
[6] = system: E57 (patient-derived glioblastoma stem cells of mesenchymal subtype); assay: as above
[7] = system: FT3469 (normal neural stem cell line); assay: as above
[8] = system: E13; assay: phenotypic distance (Euclidean, principal components) from DMSO controls (arbitrary units); higher = stronger morphological change
[9] = system: E21; assay: as above
[10] = system: E28; assay: as above
[11] = system: E31; assay: as above
[12] = system: E34; assay: as above
[13] = system: E57; assay: as above
[14] = system: FT3469; assay: as above
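For phenotypic distance (Euclidean, principal components) from DMSO controls in this document: cell Painting imaging in 384-well plates, CellProfiler features reduced to at least 20 principal components, Euclidean distance versus same-plate DMSO vehicle wells (0.1% v/v), median over six images per well.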
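For surviving fraction (nuclei count normalised to DMSO) in this document: nuclei counted by high-content imaging of Hoechst-stained cells in laminin-coated 384-well plates, relative to 0.1% DMSO vehicle wells, with staurosporine as cell-death control.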

CN1C(=O)CC(c2ccccc2)C1=O (stereo not drawn) [Phensuximide]
Details | phenotypic distance | surviving fraction
[1], 4.1 nM | – | 0.921
[1], 12.3 nM | – | 0.916
[1], 37 nM | – | 1.01
[1], 111.1 nM | – | 1
[1], 333.3 nM | – | 1
[1], 1000 nM | – | 1.06
[1], 3000 nM | – | 0.927
[2], 4.1 nM | – | 0.998
[2], 12.3 nM | – | 0.996
[2], 37 nM | – | 1.03
[2], 111.1 nM | – | 1.04
[2], 333.3 nM | – | 1
[2], 1000 nM | – | 1.09
[2], 3000 nM | – | 0.963
[3], 4.1 nM | – | 1.07
[3], 12.3 nM | – | 1.03
[3], 37 nM | – | 1.15
[3], 111.1 nM | – | 1.09
[3], 333.3 nM | – | 1
[3], 1000 nM | – | 0.995
[3], 3000 nM | – | 1.2
[4], 4.1 nM | – | 1.08
[4], 12.3 nM | – | 1.07
[4], 37 nM | – | 1.1
[4], 111.1 nM | – | 1.01
[4], 333.3 nM | – | 1.14
[4], 1000 nM | – | 1.13
[4], 3000 nM | – | 0.991
[5], 4.1 nM | – | 0.918
[5], 12.3 nM | – | 1.14
[5], 37 nM | – | 0.912
[5], 111.1 nM | – | 0.81
[5], 333.3 nM | – | 1.16
[5], 1000 nM | – | 1.1
[5], 3000 nM | – | 1.1
[6], 4.1 nM | – | 1.02
[6], 12.3 nM | – | 1.06
[6], 37 nM | – | 1.05
[6], 111.1 nM | – | 1.03
[6], 333.3 nM | – | 1.05
[6], 1000 nM | – | 1.04
[6], 3000 nM | – | 0.978
[7], 4.1 nM | – | 0.946
[7], 12.3 nM | – | 0.989
[7], 37 nM | – | 1
[7], 111.1 nM | – | 1
[7], 333.3 nM | – | 0.985
[7], 1000 nM | – | 1.01
[7], 3000 nM | – | 1.15
[8], 4.1 nM | 1.82 | –
[8], 12.3 nM | 4.3 | –
[8], 37 nM | 2.63 | –
[8], 111.1 nM | 0.682 | –
[8], 333.3 nM | 0.274 | –
[8], 1000 nM | 0.544 | –
[8], 3000 nM | 0.597 | –
[9], 4.1 nM | 0.59 | –
[9], 12.3 nM | 0.489 | –
[9], 37 nM | 0.352 | –
[9], 111.1 nM | 0.519 | –
[9], 333.3 nM | 0.385 | –
[9], 1000 nM | 0.686 | –
[9], 3000 nM | 0.387 | –
[10], 4.1 nM | 0.664 | –
[10], 12.3 nM | 0.467 | –
[10], 37 nM | 0.453 | –
[10], 111.1 nM | 0.603 | –
[10], 333.3 nM | 0.45 | –
[10], 1000 nM | 0.513 | –
[10], 3000 nM | 0.714 | –
[11], 4.1 nM | 0.79 | –
[11], 12.3 nM | 0.39 | –
[11], 37 nM | 0.726 | –
[11], 111.1 nM | 0.491 | –
[11], 333.3 nM | 0.604 | –
[11], 1000 nM | 0.913 | –
[11], 3000 nM | 0.717 | –
[12], 4.1 nM | 0.49 | –
[12], 12.3 nM | 0.73 | –
[12], 37 nM | 0.867 | –
[12], 111.1 nM | 0.657 | –
[12], 333.3 nM | 1.01 | –
[12], 1000 nM | 0.819 | –
[12], 3000 nM | 0.663 | –
[13], 4.1 nM | 0.764 | –
[13], 12.3 nM | 0.516 | –
[13], 37 nM | 0.543 | –
[13], 111.1 nM | 0.342 | –
[13], 333.3 nM | 0.878 | –
[13], 1000 nM | 0.346 | –
[13], 3000 nM | 0.811 | –
[14], 4.1 nM | 1.58 | –
[14], 12.3 nM | 0.664 | –
[14], 37 nM | 0.821 | –
[14], 111.1 nM | 0.515 | –
[14], 333.3 nM | 0.721 | –
[14], 1000 nM | 0.254 | –
[14], 3000 nM | 0.402 | –
